Measured values reported in PubChem BioAssay AID2060894 (Molecular Pharmacology Branch, DTP, NCI, 2025).

System: K12877-001-R-J1-PDC complex spheroid viability
Experiment: Anticancer human tumor K12877-001-R-J1-PDC patient-derived lung adenocarcinoma cell line growth inhibition [RAS]
Settings: for viability, T/C: stronger effect = lower value
Outline: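 Agents were tested in combination matrices in half-log decrements from a top concentration at or near clinical Cmax (10 microM if undetermined). Targets were multi-cell spheroids of tumour lines plus HUVEC and MSC stromal cells.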

[1] = curve of first compound, second compound 0.00316 µM
[2] = curve of first compound, second compound 0.01 µM
[3] = curve of first compound, second compound 0.0316 µM
[4] = curve of first compound, second compound 0.1 µM
[5] = curve of first compound, second compound 0.316 µM
[6] = curve of first compound, second compound 1 µM
[7] = second compound 0.00316 µM, first compound 0.00316 µM
[8] = second compound 0.00316 µM, first compound 0.01 µM
[9] = second compound 0.00316 µM, first compound 0.0316 µM
[10] = second compound 0.00316 µM, first compound 0.1 µM
[11] = second compound 0.00316 µM, first compound 0.316 µM
[12] = second compound 0.00316 µM, first compound 1 µM
[13] = second compound 0.01 µM, first compound 0.00316 µM
[14] = second compound 0.01 µM, first compound 0.01 µM
[15] = second compound 0.01 µM, first compound 0.0316 µM
[16] = second compound 0.01 µM, first compound 0.1 µM
[17] = second compound 0.01 µM, first compound 0.316 µM
[18] = second compound 0.01 µM, first compound 1 µM
[19] = second compound 0.0316 µM, first compound 0.00316 µM
[20] = second compound 0.0316 µM, first compound 0.01 µM
[21] = second compound 0.0316 µM, first compound 0.0316 µM
[22] = second compound 0.0316 µM, first compound 0.1 µM
[23] = second compound 0.0316 µM, first compound 0.316 µM
[24] = second compound 0.0316 µM, first compound 1 µM
[25] = second compound 0.1 µM, first compound 0.00316 µM
[26] = second compound 0.1 µM, first compound 0.01 µM
[27] = second compound 0.1 µM, first compound 0.0316 µM
[28] = second compound 0.1 µM, first compound 0.1 µM
[29] = second compound 0.1 µM, first compound 0.316 µM
[30] = second compound 0.1 µM, first compound 1 µM
[31] = second compound 0.316 µM, first compound 0.00316 µM
[32] = second compound 0.316 µM, first compound 0.01 µM
[33] = second compound 0.316 µM, first compound 0.0316 µM
[34] = second compound 0.316 µM, first compound 0.1 µM
[35] = second compound 0.316 µM, first compound 0.316 µM
[36] = second compound 0.316 µM, first compound 1 µM
[37] = second compound 1 µM, first compound 0.00316 µM
[38] = second compound 1 µM, first compound 0.01 µM
[39] = second compound 1 µM, first compound 0.0316 µM
[40] = second compound 1 µM, first compound 0.1 µM
[41] = second compound 1 µM, first compound 0.316 µM
[42] = second compound 1 µM, first compound 1 µM
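Further: spheroids exposed to agents for one week before readout.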
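Wherever viability, T/C is given: tumour cells co-cultured with HUVEC and mesenchymal stem cells in spheroids.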

With `C=CC(=O)Nc1cc(Nc2nccc(-c3cn(C)c4ccccc34)n2)c(OC)cc1N(C)CCN(C)C` + C=CC(=O)N1CCN(c2nc(OCC3CCCN3C)nc3c(F)c(-c4nc(N)cc(C)c4C(F)(F)F)c(Cl)cc23)C(C)C1 the IC50 [1] was greater than 1000 nM, the IC50 [2] was greater than 1000 nM and the IC50 [3] was greater than 1000 nM. The IC50 [4] was greater than 1000 nM, the IC50 [5] was greater than 1000 nM and the IC50 [6] was greater than 1000 nM. It also gave a viability, T/C [7] of 106%, a viability, T/C [8] of 98.8% and a viability, T/C [9] of 98.7%. For the same compound, the viability, T/C [10] was 100%, the viability, T/C [11] was 101% and the viability, T/C [12] was 83.8%. It also gave a viability, T/C [13] of 104%, a viability, T/C [14] of 95% and a viability, T/C [15] of 103%. The viability, T/C [16] was 96.2%, the viability, T/C [17] was 92.7% and the viability, T/C [18] was 82.6%. The viability, T/C [19] was 95.8%, the viability, T/C [20] was 93.1% and the viability, T/C [21] was 88.3%. For the same compound, the viability, T/C [22] was 90.7%, the viability, T/C [23] was 79.6% and the viability, T/C [24] was 80.1%. For the same compound, the viability, T/C [25] was 93.6%, the viability, T/C [26] was 88.1% and the viability, T/C [27] was 88.9%. It also gave a viability, T/C [28] of 88.1%, a viability, T/C [29] of 76.2% and a viability, T/C [30] of 70.8%. The viability, T/C [31] was 90.8%, the viability, T/C [32] was 94.1% and the viability, T/C [33] was 82.3%. It also gave a viability, T/C [34] of 89.1%, a viability, T/C [35] of 79.8% and a viability, T/C [36] of 72.6%. The viability, T/C [37] was 86.5%, the viability, T/C [38] was 91.8% and the viability, T/C [39] was 83.6%. For the same compound, the viability, T/C [40] was 76.9%, the viability, T/C [41] was 76.6% and the viability, T/C [42] was 73.5%.

Work on `CCc1c2c(nc3ccc(O)cc13)-c1cc3c(c(=O)n1C2)COC(=O)[C@]3(O)CC` + C=CC(=O)N1CCN(c2nc(OCC3CCCN3C)nc3c(F)c(-c4nc(N)cc(C)c4C(F)(F)F)c(Cl)cc23)C(C)C1 yielded an IC50 [1] of 5.1 nM, an IC50 [2] of 4.8 nM and an IC50 [3] of 4.04 nM. The IC50 [4] was 4.57 nM, the IC50 [5] was 4.75 nM and the IC50 [6] was 4.35 nM. The viability, T/C (second compound 0.00316 µM, first compound 0.000949 µM) was 88.5%, the viability, T/C (second compound 0.00316 µM, first compound 0.003 µM) was 84% and the viability, T/C (second compound 0.00316 µM, first compound 0.00949 µM) was 10.2%. For the same compound, the viability, T/C (second compound 0.00316 µM, first compound 0.03 µM) was 4.07%, the viability, T/C (second compound 0.00316 µM, first compound 0.0949 µM) was 2.12% and the viability, T/C (second compound 0.00316 µM, first compound 0.3 µM) was 1.09%. The viability, T/C (second compound 0.01 µM, first compound 0.000949 µM) was 89%, the viability, T/C (second compound 0.01 µM, first compound 0.003 µM) was 77.8% and the viability, T/C (second compound 0.01 µM, first compound 0.00949 µM) was 9.78%. The viability, T/C (second compound 0.01 µM, first compound 0.03 µM) was 4.25%, the viability, T/C (second compound 0.01 µM, first compound 0.0949 µM) was 2.46% and the viability, T/C (second compound 0.01 µM, first compound 0.3 µM) was 1.37%. For the same compound, the viability, T/C (second compound 0.0316 µM, first compound 0.000949 µM) was 88.3%, the viability, T/C (second compound 0.0316 µM, first compound 0.003 µM) was 64.4% and the viability, T/C (second compound 0.0316 µM, first compound 0.00949 µM) was 8.38%. The viability, T/C (second compound 0.0316 µM, first compound 0.03 µM) was 4.14%, the viability, T/C (second compound 0.0316 µM, first compound 0.0949 µM) was 2.38% and the viability, T/C (second compound 0.0316 µM, first compound 0.3 µM) was 1.15%. For the same compound, the viability, T/C (second compound 0.1 µM, first compound 0.000949 µM) was 75.2%, the viability, T/C (second compound 0.1 µM, first compound 0.003 µM) was 73.2% and the viability, T/C (second compound 0.1 µM, first compound 0.00949 µM) was 9.95%. It also gave a viability, T/C (second compound 0.1 µM, first compound 0.03 µM) of 2.92%, a viability, T/C (second compound 0.1 µM, first compound 0.0949 µM) of 1.65% and a viability, T/C (second compound 0.1 µM, first compound 0.3 µM) of 1.21%. For the same compound, the viability, T/C (second compound 0.316 µM, first compound 0.000949 µM) was 83.4%, the viability, T/C (second compound 0.316 µM, first compound 0.003 µM) was 77.9% and the viability, T/C (second compound 0.316 µM, first compound 0.00949 µM) was 7.81%. The viability, T/C (second compound 0.316 µM, first compound 0.03 µM) was 3.82%, the viability, T/C (second compound 0.316 µM, first compound 0.0949 µM) was 2.34% and the viability, T/C (second compound 0.316 µM, first compound 0.3 µM) was 2.52%. For the same compound, the viability, T/C (second compound 1 µM, first compound 0.000949 µM) was 82.2%, the viability, T/C (second compound 1 µM, first compound 0.003 µM) was 69.9% and the viability, T/C (second compound 1 µM, first compound 0.00949 µM) was 8.23%. It also gave a viability, T/C (second compound 1 µM, first compound 0.03 µM) of 5.41%, a viability, T/C (second compound 1 µM, first compound 0.0949 µM) of 2.4% and a viability, T/C (second compound 1 µM, first compound 0.3 µM) of 1.32%.

In the case of `CC1(C)CCC(Nc2ncc(C(F)(F)F)c(-c3c[nH]c4c(P(C)(C)=O)c(C#N)ccc34)n2)CN1` (stereo unspecified), the viability, T/C (compound 0.000949 µM) is reported as 102% [middle of 4 runs], the viability, T/C (compound 0.03 µM) is reported as 44.5% [middle of 4 runs] and the viability, T/C (compound 0.0949 µM) is reported as 33% [middle of 4 runs]. For the same compound, the viability, T/C (compound 0.3 µM) was 28.3% [middle of 4 runs] and the IC50 (curve of compound) was 27.1 nM [middle of 4 runs].

`Nc1ccn(C2OC(CO)C(O)C2(F)F)c(=O)n1` (stereo unspecified) + C=CC(=O)N1CCN(c2nc(OCC3CCCN3C)nc3c(F)c(-c4nc(N)cc(C)c4C(F)(F)F)c(Cl)cc23)C(C)C1 showed an IC50 [1] of 17.9 nM, an IC50 [2] of 16.9 nM and an IC50 [3] of 16.1 nM. It also gave an IC50 [4] of 16.6 nM, an IC50 [5] of 14.4 nM and an IC50 [6] of 13.1 nM. It also gave a viability, T/C [7] of 95.9%, a viability, T/C [8] of 94.4% and a viability, T/C [9] of 6.55%. For the same compound, the viability, T/C [10] was 4.24%, the viability, T/C [11] was 4.05% and the viability, T/C [12] was 3.99%. The viability, T/C [13] was 93.7%, the viability, T/C [14] was 83% and the viability, T/C [15] was 10.8%. The viability, T/C [16] was 4.22%, the viability, T/C [17] was 4.2% and the viability, T/C [18] was 4.01%. For the same compound, the viability, T/C [19] was 83.5%, the viability, T/C [20] was 81.2% and the viability, T/C [21] was 6.08%. It also gave a viability, T/C [22] of 3.45%, a viability, T/C [23] of 5.01% and a viability, T/C [24] of 4.23%. For the same compound, the viability, T/C [25] was 87.8%, the viability, T/C [26] was 84.7% and the viability, T/C [27] was 6.15%. The viability, T/C [28] was 4.69%, the viability, T/C [29] was 4.71% and the viability, T/C [30] was 3.18%. It also gave a viability, T/C [31] of 84.9%, a viability, T/C [32] of 70.4% and a viability, T/C [33] of 6.26%. The viability, T/C [34] was 4.95%, the viability, T/C [35] was 4.16% and the viability, T/C [36] was 4.03%. The viability, T/C [37] was 83.5%, the viability, T/C [38] was 63.4% and the viability, T/C [39] was 6.51%. The viability, T/C [40] was 3.92%, the viability, T/C [41] was 4.72% and the viability, T/C [42] was 5.35%.
